In PubChem BioAssay (NCI) one finds TGI and GI50 data, which are given here for 13 compounds.

“And” between values parts separate entries of the source, which are not always exact repeats. Equal values may be shown once.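 Assay format: 96-well plates, 48-hour exposure. GI50 is the concentration that inhibits growth by half. TGI denotes the concentration required for complete inhibition of growth.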

Among the test systems are NCI-H522 lung; MDA-N; SK-OV-3 ovarian; U251 CNS; ACHN renal; A498 renal; OVCAR-3 ovarian; SN12C renal; SF-268 CNS; HCC-2998 colon; HOP-62 NSCLC; 786-0 renal; CCRF-CEM leukemia; SK-MEL-5 melanoma; HOP-92 NSCLC; OVCAR-4 ovarian; MDA-MB-435.
Test in all cases: inhibition of tumour cell growth, NCI panel, 48 h

As for `CC(C)NC(=O)OCc1c(COC(=O)NC(C)C)c(-c2ccc[n+](COC(=O)C(C)(C)C)c2)n2c1CCC2`, the TGI was over 81.5 µM in the assay on NCI-H522 lung; over 100 µM with MDA-N; over 100 µM in the assay on SK-OV-3 ovarian; over 100 µM in the assay on U251 CNS; over 100 µM in the assay on ACHN renal; over 91.9 µM in the assay with A498 renal. For the same compound, the TGI with OVCAR-3 ovarian, in the assay with SN12C renal, in the assay on SF-268 CNS, in the assay with HCC-2998 colon, with HOP-62 NSCLC and in the assay with 786-0 renal was over 100 µM in each case. The TGI in the assay with CCRF-CEM leukemia, in the assay with SK-MEL-5 melanoma, in the assay on HOP-92 NSCLC, in the assay on OVCAR-4 ovarian and with MDA-MB-435 was over 100 µM in each case.

For the compound `c1cc(C[S+]2CCCC2)sc1C[S+]1CCCC1`, the TGI with NCI-H522 lung, in the assay with MDA-N, in the assay with SK-OV-3 ovarian, in the assay with U251 CNS, with ACHN renal and with A498 renal was over 100 µM in each case. Further, the TGI in the assay with OVCAR-3 ovarian, with SN12C renal, with SF-268 CNS, in the assay with HCC-2998 colon, with HOP-62 NSCLC and with 786-0 renal was over 100 µM each time. The TGI in the assay on CCRF-CEM leukemia, with SK-MEL-5 melanoma, in the assay with HOP-92 NSCLC, with OVCAR-4 ovarian and in the assay on MDA-MB-435 was over 100 µM each time.

With `CN(C)CCCN1c2ccccc2CCc2cc([N+](=O)[O-])ccc21`, the TGI in the assay on NCI-H522 lung was 60.6 µM and 31 µM; in the assay on MDA-N, 45.3 µM and 29.1 µM; with SK-OV-3 ovarian, > 100 µM and 32.6 µM; with U251 CNS, 64.2 µM and 32.9 µM; in the assay with ACHN renal, 90.4 µM and 30 µM; in the assay with A498 renal it was 61.4 µM and 25.8 µM. Moreover, the TGI in the assay with OVCAR-3 ovarian is 48.4 µM and 34.8 µM; in the assay with SN12C renal it was 60.9 µM and 30.4 µM; with SF-268 CNS, 52.5 µM and 28.8 µM; in the assay on HCC-2998 colon, 34.1 µM and 25.2 µM; with HOP-62 NSCLC it was 48.6 µM and 30 µM; in the assay with 786-0 renal it was 66 µM and 28.9 µM. Moreover, the TGI is > 100 µM and 27 µM in the assay on CCRF-CEM leukemia; 31.2 µM and 25.7 µM in the assay with SK-MEL-5 melanoma; 58.1 µM and 22.6 µM in the assay with HOP-92 NSCLC; 69.5 µM and 40.5 µM in the assay with OVCAR-4 ovarian; 48.4 µM and 31.1 µM in the assay with MDA-MB-435. For the same compound, the GI50 with SK-OV-3 ovarian was 38.7 µM and 17.3 µM; with CCRF-CEM leukemia, 43.8 µM and 10.7 µM; with HOP-92 NSCLC, 21.8 µM and 7.69 µM.

On to `c1cc(NC2=NCCO2)c2c(c1)OCO2`, for which the TGI in the assay on NCI-H522 lung, with MDA-N, in the assay with SK-OV-3 ovarian, in the assay with U251 CNS, in the assay with ACHN renal and with A498 renal was over 100 µM in each case. The TGI with OVCAR-3 ovarian, in the assay on SN12C renal, in the assay on SF-268 CNS, in the assay on HCC-2998 colon, with HOP-62 NSCLC and with 786-0 renal was over 100 µM throughout. In addition, the TGI in the assay with CCRF-CEM leukemia, with SK-MEL-5 melanoma, with HOP-92 NSCLC, in the assay with OVCAR-4 ovarian and with MDA-MB-435 was over 100 µM each time.

With `Oc1cccc2c1[nH]c1c(C3=C[C@@]4(O)CC/C=C\CCCCN5CC[C@@H]3[C@]3(CC6/C=C\CCCCN6[C@H]34)C5)nccc12` (some centres undefined), the TGI in the assay on NCI-H522 lung turned out to be 2.4 µM; with MDA-N, 2 µM; with SK-OV-3 ovarian, 5.15 µM; in the assay with U251 CNS, 2.79 µM; with ACHN renal, 4.1 µM; in the assay with A498 renal, 7.65 µM. The TGI was 2.83 µM in the assay on OVCAR-3 ovarian; 2.49 µM in the assay on SN12C renal; 6.15 µM with SF-268 CNS; 1.87 µM with HCC-2998 colon; 1.85 µM with HOP-62 NSCLC; 1.86 µM with 786-0 renal. Further, the TGI in the assay on CCRF-CEM leukemia is 4.04 µM; in the assay on SK-MEL-5 melanoma it was 2.96 µM; with HOP-92 NSCLC, 1.3 µM; in the assay on OVCAR-4 ovarian it was 2.79 µM; in the assay with MDA-MB-435, 2.17 µM.

Take `CCn1c2ccccc2c2cc(NC(=O)c3c(NCCNCCO)nc(=O)[nH]c3C)ccc21`: the TGI in the assay on NCI-H522 lung, in the assay on MDA-N, in the assay on SK-OV-3 ovarian, in the assay on U251 CNS, with ACHN renal and in the assay on A498 renal was over 100 µM in each case. The TGI in the assay with OVCAR-3 ovarian, in the assay on SN12C renal, with SF-268 CNS, with HCC-2998 colon, in the assay with HOP-62 NSCLC and in the assay with 786-0 renal was over 100 µM in each case. Besides, the TGI in the assay with CCRF-CEM leukemia, in the assay with SK-MEL-5 melanoma, with HOP-92 NSCLC, in the assay with OVCAR-4 ovarian and with MDA-MB-435 was over 100 µM throughout.

As to `COC(=O)c1ccccc1C1CN=NC12Cc1cc(C)cc(C)c1C2=O` (centres undefined), the TGI in the assay with NCI-H522 lung is 90 µM; in the assay on MDA-N, over 100 µM; in the assay with SK-OV-3 ovarian, over 100 µM; with U251 CNS, over 100 µM; with ACHN renal, over 100 µM; with A498 renal, 66.2 µM. The TGI with OVCAR-3 ovarian, in the assay with SN12C renal, in the assay on SF-268 CNS, in the assay with HCC-2998 colon, in the assay on HOP-62 NSCLC and with 786-0 renal was over 100 µM each time. Besides, the TGI with CCRF-CEM leukemia, in the assay on SK-MEL-5 melanoma, in the assay on HOP-92 NSCLC, in the assay on OVCAR-4 ovarian and in the assay with MDA-MB-435 was over 100 µM each time.

In the case of `O=c1cc(-c2cccc(OCc3ccccc3)c2)[nH]c2cc3c(cc12)OCO3`, the TGI in the assay with NCI-H522 lung was 1.42 µM; in the assay on MDA-N, 0.417 µM; with SK-OV-3 ovarian, 4.23 µM; with U251 CNS, 1.84 µM; with ACHN renal, 64.3 µM; in the assay on A498 renal, 3.16 µM. Further, the TGI was 3.58 µM in the assay on OVCAR-3 ovarian; over 22.1 µM with SN12C renal; over 70.3 µM with SF-268 CNS; 0.751 µM with HCC-2998 colon; 9.98 µM in the assay on HOP-62 NSCLC; 3.98 µM with 786-0 renal. Moreover, the TGI with CCRF-CEM leukemia was 0.481 µM; with SK-MEL-5 melanoma, over 100 µM; in the assay on HOP-92 NSCLC, 18.6 µM; in the assay on OVCAR-4 ovarian it was over 27.8 µM; in the assay with MDA-MB-435, 0.36 µM.

Regarding `CCOC(=O)c1cc(C#N)[nH]c1-c1ccsc1`, the TGI was 90.2 µM in the assay with NCI-H522 lung; over 100 µM in the assay with MDA-N; over 100 µM in the assay on SK-OV-3 ovarian; 87.8 µM in the assay with U251 CNS; over 100 µM in the assay with ACHN renal; over 100 µM with A498 renal. Moreover, the TGI is 96 µM in the assay with OVCAR-3 ovarian; over 100 µM in the assay on SN12C renal; 57.1 µM with SF-268 CNS; over 100 µM with HCC-2998 colon; over 100 µM in the assay with HOP-62 NSCLC; over 100 µM in the assay with 786-0 renal. Further, the TGI in the assay with CCRF-CEM leukemia was 69.3 µM; in the assay on SK-MEL-5 melanoma, over 100 µM; with HOP-92 NSCLC, over 100 µM; with OVCAR-4 ovarian, over 100 µM; with MDA-MB-435, 51.9 µM.

On to `CC1=C[C@@H]2[C@@H](CC(CO)=C[C@H]3[C@@H]4C(C)(C)[C@]4(OCC(C)C)[C@H](OCC(C)C)[C@@H](C)[C@]23O)C1=O`, for which the TGI in the assay with NCI-H522 lung is 4.58 µM; in the assay on MDA-N, 3.49 µM; in the assay with SK-OV-3 ovarian it was over 8.32 µM; in the assay with U251 CNS it was 4.15 µM; with ACHN renal it was 3.4 µM; in the assay with A498 renal it was over 4.44 µM. For the same compound, the TGI with OVCAR-3 ovarian is 5.46 µM; in the assay with SN12C renal, 4.22 µM; in the assay with SF-268 CNS, over 8.32 µM; in the assay on HCC-2998 colon, 1.78 µM; in the assay on HOP-62 NSCLC, 2.8 µM; in the assay with 786-0 renal, over 6.54 µM. In addition, the TGI in the assay on CCRF-CEM leukemia is 8.12 µM; in the assay with SK-MEL-5 melanoma, over 4.37 µM; in the assay on HOP-92 NSCLC, over 5.57 µM; in the assay with OVCAR-4 ovarian, over 8.32 µM; in the assay on MDA-MB-435, over 6.31 µM.

In the case of `Cc1cn(C2CC(NC(=NCC3OC(n4cnc5c(N)ncnc54)CC3O)NC#N)C(CO)O2)c(=O)[nH]c1=O` (centres undefined), the TGI with NCI-H522 lung, with MDA-N, with SK-OV-3 ovarian, in the assay on U251 CNS, in the assay on ACHN renal and with A498 renal was over 100 µM throughout. The TGI in the assay with OVCAR-3 ovarian, in the assay with SN12C renal, in the assay on SF-268 CNS, in the assay on HCC-2998 colon, in the assay on HOP-62 NSCLC and with 786-0 renal was over 100 µM in each case. In addition, the TGI with CCRF-CEM leukemia, with SK-MEL-5 melanoma, in the assay on HOP-92 NSCLC, with OVCAR-4 ovarian and in the assay on MDA-MB-435 was over 100 µM each time.

As to `COC(=O)/C=C1/OC(c2ccc(C)cc2)=C(Cl)C1=O`, the TGI with NCI-H522 lung worked out at 23.2 µM; with MDA-N it was 33.1 µM; in the assay with SK-OV-3 ovarian, 59.3 µM; in the assay with U251 CNS it was 24.6 µM; in the assay on ACHN renal, 30.4 µM; in the assay on A498 renal it was 33.6 µM. In addition, the TGI in the assay on OVCAR-3 ovarian was determined as 27.1 µM; with SN12C renal, 38 µM; in the assay on SF-268 CNS, 41.6 µM; in the assay on HCC-2998 colon, 34.4 µM; in the assay on HOP-62 NSCLC, 38.8 µM; with 786-0 renal it was 27 µM. Also, the TGI came to 11.7 µM in the assay with CCRF-CEM leukemia; 27.9 µM in the assay with SK-MEL-5 melanoma; 34.1 µM in the assay on HOP-92 NSCLC; 27.5 µM in the assay on OVCAR-4 ovarian; 34.9 µM in the assay on MDA-MB-435.

In the case of `N#CC1(C#N)C(c2ccccc2)C=CC(c2ccc([N+](=O)[O-])cc2)C1(C#N)C#N` (centres undefined), the TGI is 9.48 µM with NCI-H522 lung; 17 µM in the assay with MDA-N; 34.5 µM in the assay on SK-OV-3 ovarian; 53 µM with U251 CNS; 9.54 µM in the assay with ACHN renal; 32.1 µM in the assay on A498 renal. Also, the TGI in the assay on OVCAR-3 ovarian was 23.2 µM; with SN12C renal it was 12.2 µM; in the assay with SF-268 CNS, 51.6 µM; with HCC-2998 colon, 42.9 µM; with HOP-62 NSCLC it was 31.7 µM; in the assay on 786-0 renal, 7.71 µM. The TGI with CCRF-CEM leukemia was over 100 µM; with SK-MEL-5 melanoma, 22.9 µM; in the assay with HOP-92 NSCLC, 9.88 µM; in the assay with OVCAR-4 ovarian it was 30.5 µM; in the assay on MDA-MB-435, 16.3 µM.
